Experimental findings from PubChem BioAssay (NCI) are described below.

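These data come from cells grown in 96-well plates and exposed to compound for 48 hours at five concentrations. GI50: concentration for 50% inhibition of growth. The concentration for full growth arrest is given as TGI.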 Bounds are passed on as bounds.

Common to all, as to assay: growth of human tumour cells (NCI), 48 h
The test system of experiment [1] is SF-268 CNS.
Experiment [2] has as its system HCC-2998 colon.
Experiment [3] relates to IGROV1 ovarian.
The test system of experiment [4] is K-562 leukemia.
The subject of experiment [5] is SK-MEL-5 melanoma.
Experiment [6] relates to SK-MEL-28 melanoma.
Experiment [7] relates to RXF 393 renal.
The subject of experiment [8] is RPMI-8226 leukemia.
Experiment [9] concerns SNB-75 CNS.
For experiment [10], the system named is A498 renal.

Regarding `O=C1C2C(C(=O)N1OS(=O)(=O)c1ccccc1)N(Cc1ccccc1)C(=O)N2Cc1ccccc1` (stereo not given), the TGI in experiment [1], in experiment [2], in [3], in [4], in experiment [5] and in experiment [6] was over 100 µM throughout. Further, the TGI in experiment [7], in experiment [8], in experiment [9] and in [10] was over 100 µM each time.
As to `O=CN/C=C/c1cc(O)ccc1O`, the TGI is 37.5 µM in experiment [1]; over 100 µM in [2]; 71.4 µM in [3]; 52.9 µM in experiment [4]; 39.3 µM in experiment [5]; over 78.5 µM in experiment [6]. Also, the TGI in experiment [7] was 26.3 µM; in experiment [8], 78.2 µM; in experiment [9], 98.2 µM; in experiment [10], over 100 µM.
For `COC1(OC)CCC2C1C1CCC(OC)(OC)C21` (stereo not given), the TGI in experiment [1], in [2], in experiment [3], in experiment [4], in experiment [5] and in experiment [6] was over 50 µM in each case. The TGI in experiment [7], in experiment [8], in [9] and in [10] was over 50 µM throughout.
As for `CCCCC(=O)OCC(=O)[C@]1(O)Cc2c(O)c3c(c(O)c2[C@@H](OC2CC(NC(=O)C(F)(F)F)C(O)C(C)O2)C1)C(=O)c1c(OC)cccc1C3=O` (stereo not given in full), the TGI is 4.99 µM in [1]; 3.81 µM in experiment [2]; 17 µM in [3]; over 21.9 µM in [4]; 1.64 µM in [5]; 12.2 µM in experiment [6]. Moreover, the TGI in experiment [7] was determined as 2.62 µM; in experiment [8], 32.7 µM; in experiment [9], 4.37 µM; in experiment [10] it was 0.948 µM.
On to `COC1=CC(c2ccc[nH]2)=N/C1=C\c1[nH]c(C)c(C(=O)OC(C)C)c1C`, for which the GI50 in experiment [1] was 60.8 nM; in experiment [2], 0.0485 µM; in experiment [3], 53.5 nM; in experiment [4], 67.4 nM; in experiment [5], 24.2 nM; in experiment [6] it was 216 nM. Further, the GI50 in experiment [7] was 58.4 nM; in [8], 0.223 µM; in [9], 80.5 nM; in experiment [10], 255 nM. The TGI in [1] was found to be 5.25 µM; in experiment [2] it was 1.36 µM; in [3] it was 1.62 µM; in experiment [4] it was 1.14 µM; in experiment [5] it was 0.0773 µM; in experiment [6] it was 1.95 µM. For the same molecule, the TGI in experiment [7] stood at 1.03 µM; in experiment [8], 2.47 µM; in experiment [9], 1.96 µM; in experiment [10], 1.92 µM.
As for `Cn1cnc([N+](=O)[O-])c1Sc1nnc(-c2cccnc2)n1C`, the TGI was over 95.7 µM in experiment [1]; 67.1 µM in experiment [2]; over 100 µM in [3]; 57.8 µM in [4]; 35.4 µM in experiment [5]; 35.6 µM in [6]. Also, the TGI is 23.9 µM in experiment [7], 49.4 µM in [8], over 100 µM in experiment [9] and over 100 µM in experiment [10].
Regarding `COC1=CC(=O)c2nc(-c3ccncc3)[nH]c2C1=O`, the GI50 in [1] was over 100000 nM; in experiment [2], over 100 µM; in experiment [3] it was over 100000 nM; in experiment [4], over 100000 nM; in experiment [5], over 100000 nM; in experiment [6] it was over 100000 nM. Moreover, the GI50 in [7] is over 100000 nM; in [8] it was over 100 µM; in experiment [9] it was 88300 nM; in experiment [10], over 100000 nM. Besides, the TGI in experiment [1], in [2], in experiment [3], in experiment [4], in experiment [5] and in experiment [6] was over 100 µM each time. In addition, the TGI in experiment [7], in experiment [8], in experiment [9] and in experiment [10] was over 100 µM throughout.
As for `O=C1C(Cl)=C(Nc2cccc(Cl)c2)C(=O)N1Cc1ccc(Cl)cc1Cl`, the GI50 in experiment [1] was 1370 nM; in [2] it was 4.23 µM; in experiment [3] it was under 23 nM; in experiment [4], 834 nM; in experiment [5], 321 nM; in experiment [6], 1670 nM. Moreover, the GI50 in [7] was 181 nM; in [8], 3.18 µM; in experiment [9], 1290 nM; in experiment [10], 771 nM. Further, the TGI in [1] is 25 µM; in [2] it was 18.8 µM; in experiment [3] it was 9.15 µM; in experiment [4] it was over 87.5 µM; in [5] it was 4.5 µM; in experiment [6] it was 14.2 µM. Also, the TGI in experiment [7] was 3.83 µM; in [8], 15.4 µM; in experiment [9], 9.92 µM; in experiment [10], 7.12 µM.
`O=C(N/C(=C\c1ccc(/C=C(\NC(=O)c2ccccc2)c2nc3cc([N+](=O)[O-])ccc3[nH]2)cc1)c1nc2cc([N+](=O)[O-])ccc2[nH]1)c1ccccc1`: the TGI in experiment [1] is over 100 µM; in [2] it was 77.2 µM; in [3] it was over 100 µM; in experiment [4], over 100 µM; in [5], over 100 µM; in experiment [6], 69.8 µM. The TGI in [7], in experiment [8], in [9] and in experiment [10] was over 100 µM in each case.
On to `CC1=C(C(=O)NCc2ccccc2)C(/C=C/c2ccccc2)C(C(=O)NCc2ccccc2)=C(C)N1`, for which the TGI in [1], in [2], in experiment [3], in experiment [4], in [5] and in experiment [6] was over 100 µM each time. Also, the TGI in experiment [7], in experiment [8], in experiment [9] and in [10] was over 100 µM each time.
